The term EC50 denotes the concentration giving half of the maximal effect.

One series has as its target T1, hAMY3 receptor (Homo sapiens, UniProt O60896+P30988).
T1 sequence (P30988 25-474): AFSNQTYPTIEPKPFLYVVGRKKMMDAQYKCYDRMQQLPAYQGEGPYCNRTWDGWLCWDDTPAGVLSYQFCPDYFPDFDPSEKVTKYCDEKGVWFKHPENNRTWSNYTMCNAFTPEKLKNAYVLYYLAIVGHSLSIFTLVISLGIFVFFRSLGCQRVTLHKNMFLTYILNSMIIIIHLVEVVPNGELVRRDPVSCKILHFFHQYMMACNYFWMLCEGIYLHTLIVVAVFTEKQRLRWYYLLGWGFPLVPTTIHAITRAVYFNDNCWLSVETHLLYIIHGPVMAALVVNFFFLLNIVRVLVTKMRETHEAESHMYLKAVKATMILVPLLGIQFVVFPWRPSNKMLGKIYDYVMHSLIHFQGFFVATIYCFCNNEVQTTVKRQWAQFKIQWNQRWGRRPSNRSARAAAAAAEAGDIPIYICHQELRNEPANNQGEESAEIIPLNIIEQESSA
T1 sequence (O60896 24-148 partner): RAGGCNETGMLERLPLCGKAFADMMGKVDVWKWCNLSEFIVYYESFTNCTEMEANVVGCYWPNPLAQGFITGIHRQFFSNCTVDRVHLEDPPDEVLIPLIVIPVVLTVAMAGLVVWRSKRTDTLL
In words: cAMP assay for in vitro receptor activation, hAMY3-R. Type of series: cell-based. Particulars: cAMP assay, hAMY3 receptor; read-out: hAMY3R EC50. The procedure, abridged: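 Read-out is TR-FRET cAMP signal, recorded one hour after reagent addition, following 30 min room-temperature stimulation of stable hAMY3 cells with graded compound doses in casein/IBMX (0.5 mM) buffer.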
On the technique in general: Changes in cAMP serve as a functional read-out for many G protein-coupled receptors.

Series [1] is described as follows: Physical stability of peptide analogues (Thioflavin T fibrillation). Type of series: physicochemical. Particulars: maximum ThT signal normalized between hAMY maximum and buffer background; 40° C., shaking, four days; pH 7 per table title. The procedure, abridged:
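ThT fluorescence (450 nm excitation, 480 nm emission; 4 μM dye) was read every 10 min over four days at 40° C under 700 rpm shaking stress, after 1 h in pH 4 acetate or pH 7 phosphate (50 mM). Peak smoothed signal expressed as percent, scaled between buffer background and hAMY maximum.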

Bridge positions count the residues as written; N and C are the ends. Square brackets hold non-standard residues; d marks the D form. Peptide text beside a SMILES is read from it. Hyp = O=C(O)[C@@H]1C[C@@H](O)CN1; Cit = NC(=O)NCCC[C@H](N)C(=O)O

For `CC[C@H](C)[C@H](NC(=O)[C@H](CCC(N)=O)NC(=O)[C@H](Cc1c[nH]cn1)NC(=O)[C@H](C)NC(=O)[C@H](CC(C)C)NC(=O)[C@H](CCCNC(=N)N)NC(=O)[C@H](CCC(N)=O)NC(=O)[C@@H](NC(=O)[C@@H](NC(=O)[C@@H]1CSSC[C@H](NC(=O)CN)C(=O)N[C@@H](CCCNC(=N)N)C(=O)N[C@@H](Cc2ccccc2)C(=O)NCC(=O)N[C@@H]([C@@H](C)O)C(=O)N1)[C@@H](C)O)C(C)C)C(=O)N[C@@H](Cc1ccc(O)cc1)C(=O)N[C@@H](CCC(N)=O)C(=O)N[C@@H](Cc1ccccc1)C(=O)N[C@H](C(=O)N[C@@H](CC(=O)O)C(=O)N[C@@H](CCCCN)C(=O)N[C@@H](CC(=O)O)C(=O)N[C@@H](CCCCN)C(=O)N[C@@H](CC(=O)O)C(=O)N[C@@H](CC(N)=O)C(=O)N[C@H](C(=O)N[C@@H](C)C(=O)N1CCC[C@H]1C(=O)N[C@@H](CCCNC(=N)N)C(=O)N[C@H](C(=O)N[C@@H](CC(N)=O)C(=O)N[C@H](C(=O)NCC(=O)N1CCC[C@H]1C(=O)N[C@@H](CCC(N)=O)C(=O)NCC(=O)N[C@@H](Cc1ccc(O)cc1)C(N)=O)C(C)C)[C@@H](C)O)C(C)C)[C@@H](C)O` [compound 362] (H-GCRFGTCTVQRLAHQIYQFTDKDKDNVAPRTNVGPQGY-NH2; disulfide 2-7), the EC50 on hAMY3 receptor stood at 0.007 nM. Further, in series [1], the “Max ThT signal (%)” value worked out at 8.900%.
In the same order, the values of `CC[C@H](C)[C@H](NC(=O)[C@H](CCC(N)=O)NC(=O)[C@H](Cc1c[nH]cn1)NC(=O)[C@H](C)NC(=O)[C@H](CC(C)C)NC(=O)[C@H](CCCNC(=N)N)NC(=O)[C@H](CCC(N)=O)NC(=O)[C@@H](NC(=O)[C@@H](NC(=O)[C@@H]1CSSC[C@H](NC(=O)CN)C(=O)N[C@@H](CCCNC(=N)N)C(=O)N[C@@H](Cc2ccccc2)C(=O)NCC(=O)N[C@@H]([C@@H](C)O)C(=O)N1)[C@@H](C)O)C(C)C)C(=O)N[C@@H](Cc1ccc(O)cc1)C(=O)N[C@@H](CCC(N)=O)C(=O)N[C@@H](Cc1ccccc1)C(=O)N[C@H](C(=O)N[C@@H](CC(=O)O)C(=O)N[C@@H](CCCCN)C(=O)N[C@@H](CC(=O)O)C(=O)N[C@@H](CCCCN)C(=O)N[C@@H](CC(=O)O)C(=O)N[C@@H](CC(N)=O)C(=O)N[C@H](C(=O)N[C@@H](C)C(=O)N1CCC[C@H]1C(=O)N[C@@H](CCCNC(=N)N)C(=O)N[C@H](C(=O)N[C@@H](CC(N)=O)C(=O)N[C@H](C(=O)N[C@@H](CO)C(=O)N1CCC[C@H]1C(=O)N[C@@H](CCC(N)=O)C(=O)NCC(=O)N1C[C@H](O)C[C@H]1C(N)=O)[C@@H](C)CC)[C@@H](C)O)C(C)C)[C@@H](C)O` [compound 141] (H-GCRFGTCTVQRLAHQIYQFTDKDKDNVAPRTNISPQG[Hyp]-NH2; disulfide 2-7; N-terminus assumed) are 0.036 nM and 3.200%.
In the case of `CC[C@H](C)[C@H](NC(=O)[C@H](CCC(N)=O)NC(=O)[C@H](Cc1c[nH]cn1)NC(=O)[C@H](C)NC(=O)[C@H](CC(C)C)NC(=O)[C@H](Cc1c[nH]c2ccccc12)NC(=O)[C@H](CCC(N)=O)NC(=O)[C@@H](NC(=O)[C@@H](NC(=O)[C@@H]1CSSC[C@H](NC(=O)CN)C(=O)N[C@@H](CCCNC(=N)N)C(=O)N[C@@H](Cc2ccccc2)C(=O)NCC(=O)N[C@@H]([C@@H](C)O)C(=O)N1)[C@@H](C)O)C(C)C)C(=O)N[C@@H](Cc1ccc(O)cc1)C(=O)N[C@@H](CCC(N)=O)C(=O)N[C@@H](Cc1ccccc1)C(=O)N[C@H](C(=O)N[C@@H](CC(=O)O)C(=O)N[C@@H](CCCCN)C(=O)N[C@@H](CC(=O)O)C(=O)N[C@@H](CCCCN)C(=O)N[C@@H](CC(=O)O)C(=O)N[C@@H](CC(N)=O)C(=O)N[C@H](C(=O)N[C@@H](C)C(=O)N1CCC[C@H]1C(=O)N[C@@H](CCCNC(=N)N)C(=O)N[C@H](C(=O)N[C@@H](CCCCN)C(=O)N[C@H](C(=O)N[C@@H](CO)C(=O)N1CCC[C@H]1C(=O)N[C@@H](CC(N)=O)C(=O)NCC(=O)N1C[C@H](O)C[C@H]1C(N)=O)[C@@H](C)CC)[C@@H](C)O)C(C)C)[C@@H](C)O` [compound 337] (H-GCRFGTCTVQWLAHQIYQFTDKDKDNVAPRTKISPNG[Hyp]-NH2; disulfide 2-7; N-terminus assumed), the EC50 on hAMY3 receptor turned out to be 0.019 nM. In addition, in series [1], the “Max ThT signal (%)” value came out at 16.800%.
With `CC(C)C[C@H](NC(=O)[C@H](CCCNC(N)=O)NC(=O)[C@H](CCC(N)=O)NC(=O)[C@@H](NC(=O)[C@@H](NC(=O)[C@@H]1CSSC[C@H](NC(=O)CN)C(=O)N[C@@H](CCCNC(=N)N)C(=O)N[C@@H](Cc2ccccc2)C(=O)NCC(=O)N[C@@H]([C@@H](C)O)C(=O)N1)[C@@H](C)O)C(C)C)C(=O)N[C@@H](C)C(=O)N[C@@H](Cc1c[nH]cn1)C(=O)N[C@@H](Cc1ccccc1)C(=O)N[C@@H](CC(C)C)C(=O)N[C@@H](Cc1ccc(O)cc1)C(=O)N[C@@H](CCC(N)=O)C(=O)N[C@@H](Cc1ccccc1)C(=O)N[C@H](C(=O)N[C@@H](CC(=O)O)C(=O)N[C@@H](CCCCN)C(=O)N[C@@H](CC(=O)O)C(=O)N[C@@H](CCCCN)C(=O)N[C@@H](CC(=O)O)C(=O)N[C@@H](CC(N)=O)C(=O)N[C@H](C(=O)N[C@@H](C)C(=O)N1CCC[C@H]1C(=O)N[C@@H](CCCNC(=N)N)C(=O)N[C@H](C(=O)N[C@@H](CC(N)=O)C(=O)N[C@H](C(=O)NCC(=O)N[C@@H](CO)C(=O)N[C@@H](CC(N)=O)C(=O)N[C@H](C(=O)N[C@@H](Cc1ccc(O)cc1)C(N)=O)[C@@H](C)O)C(C)C)[C@@H](C)O)C(C)C)[C@@H](C)O` [compound 264] (H-GCRFGTCTVQ[Cit]LAHFLYQFTDKDKDNVAPRTNVGSNTY-NH2; disulfide 2-7), on hAMY3 receptor, the EC50 amounted to 0.006 nM. Further, the “Max ThT signal (%)” value in series [1] amounted to 1.350%.
On to `CC[C@H](C)[C@H](NC(=O)[C@H](CCC(N)=O)NC(=O)[C@H](Cc1c[nH]cn1)NC(=O)[C@H](C)NC(=O)[C@H](CC(C)C)NC(=O)[C@H](CCCNC(N)=O)NC(=O)[C@H](CCC(N)=O)NC(=O)[C@@H](NC(=O)[C@@H](NC(=O)[C@@H]1CSSC[C@H](NC(=O)[C@@H](N)CCCCN)C(=O)N[C@@H](CC(N)=O)C(=O)N[C@@H]([C@@H](C)O)C(=O)N[C@@H](C)C(=O)N[C@@H]([C@@H](C)O)C(=O)N1)[C@@H](C)O)C(C)C)C(=O)N[C@@H](Cc1ccc(O)cc1)C(=O)N[C@@H](CCC(N)=O)C(=O)N[C@@H](Cc1ccccc1)C(=O)N[C@H](C(=O)N[C@@H](CC(=O)O)C(=O)N[C@@H](CCCCN)C(=O)N[C@@H](CC(=O)O)C(=O)N[C@@H](CCCCN)C(=O)N[C@@H](CC(=O)O)C(=O)N[C@@H](CC(N)=O)C(=O)N[C@H](C(=O)N[C@@H](C)C(=O)N1CCC[C@H]1C(=O)N[C@@H](CCCNC(=N)N)C(=O)N[C@H](C(=O)N[C@@H](CCCCN)C(=O)N[C@H](C(=O)NCC(=O)N[C@@H](CO)C(=O)N[C@@H](CC(N)=O)C(=O)NCC(=O)N1C[C@H](O)C[C@H]1C(N)=O)C(C)C)[C@@H](C)O)C(C)C)[C@@H](C)O` [compound 248] (H-KCNTATCTVQ[Cit]LAHQIYQFTDKDKDNVAPRTKVGSNG[Hyp]-NH2; disulfide 2-7; N-terminus assumed), for which the half-maximal effective concentration (EC50) at hAMY3 receptor was 0.027 nM. Besides, the “Max ThT signal (%)” value in series [1] amounted to 13.600%.
